The values that follow come from ChEMBL document CHEMBL5104139, “A critical update on the strategies towards small molecule inhibitors targeting Serine/arginine-rich (SR) proteins and Serine/arginine-rich proteins related kinases in alternative splicing” (Bioorg Med Chem, 2022).

Experiment [1] addresses T1, Dual specificity tyrosine-phosphorylation-regulated kinase 1A (Homo sapiens, UniProt Q13627).
For experiment [2], the target named is Cyclin-dependent kinase 5 (Homo sapiens, UniProt Q00535). Put plainly: Inhibition of CDK5 (unknown origin).
Chain of Cyclin-dependent kinase 5 (Q00535 whole entry): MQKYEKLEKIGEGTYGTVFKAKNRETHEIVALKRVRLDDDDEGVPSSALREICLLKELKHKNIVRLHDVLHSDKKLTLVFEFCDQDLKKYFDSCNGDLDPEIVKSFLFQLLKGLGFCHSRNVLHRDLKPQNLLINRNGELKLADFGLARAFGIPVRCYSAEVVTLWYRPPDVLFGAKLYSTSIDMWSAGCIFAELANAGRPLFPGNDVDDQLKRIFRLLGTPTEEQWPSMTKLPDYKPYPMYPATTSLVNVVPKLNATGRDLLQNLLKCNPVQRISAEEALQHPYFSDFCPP
In experiment [3] the target is Glycogen synthase kinase-3 (Homo sapiens, UniProt P49840+P49841). In words: Inhibition of GSK3 (unknown origin). In kind it is protein assay.
The target of experiment [4] is T1, Dual specificity tyrosine-phosphorylation-regulated kinase 1A. Put plainly: Inhibition of DYRK1A (unknown origin) at 1 uM relative to control.
In experiment [5] the target is SRSF protein kinase 1 (Homo sapiens, UniProt Q96SB4).
Chain of SRSF protein kinase 1 (Q96SB4 whole entry): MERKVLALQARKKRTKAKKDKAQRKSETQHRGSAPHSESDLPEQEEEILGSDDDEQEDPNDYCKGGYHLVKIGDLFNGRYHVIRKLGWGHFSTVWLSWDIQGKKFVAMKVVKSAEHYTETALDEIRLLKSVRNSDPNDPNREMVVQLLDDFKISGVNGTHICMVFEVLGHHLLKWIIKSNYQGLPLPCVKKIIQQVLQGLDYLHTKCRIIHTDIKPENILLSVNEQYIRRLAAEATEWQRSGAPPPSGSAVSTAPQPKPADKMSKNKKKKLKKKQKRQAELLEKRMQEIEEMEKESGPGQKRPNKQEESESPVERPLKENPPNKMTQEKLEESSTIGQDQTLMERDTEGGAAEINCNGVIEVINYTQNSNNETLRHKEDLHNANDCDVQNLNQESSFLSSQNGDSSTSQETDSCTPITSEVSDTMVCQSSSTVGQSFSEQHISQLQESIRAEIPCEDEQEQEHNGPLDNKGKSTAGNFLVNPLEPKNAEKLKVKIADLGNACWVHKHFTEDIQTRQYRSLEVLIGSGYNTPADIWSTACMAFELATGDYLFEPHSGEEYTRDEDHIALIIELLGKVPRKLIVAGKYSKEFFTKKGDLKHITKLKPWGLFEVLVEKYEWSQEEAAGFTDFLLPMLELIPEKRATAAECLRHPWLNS
In experiment [6] the target is Dual specificity protein kinase CLK2 (Homo sapiens, UniProt P49760).
Chain of Dual specificity protein kinase CLK2 (P49760 whole entry): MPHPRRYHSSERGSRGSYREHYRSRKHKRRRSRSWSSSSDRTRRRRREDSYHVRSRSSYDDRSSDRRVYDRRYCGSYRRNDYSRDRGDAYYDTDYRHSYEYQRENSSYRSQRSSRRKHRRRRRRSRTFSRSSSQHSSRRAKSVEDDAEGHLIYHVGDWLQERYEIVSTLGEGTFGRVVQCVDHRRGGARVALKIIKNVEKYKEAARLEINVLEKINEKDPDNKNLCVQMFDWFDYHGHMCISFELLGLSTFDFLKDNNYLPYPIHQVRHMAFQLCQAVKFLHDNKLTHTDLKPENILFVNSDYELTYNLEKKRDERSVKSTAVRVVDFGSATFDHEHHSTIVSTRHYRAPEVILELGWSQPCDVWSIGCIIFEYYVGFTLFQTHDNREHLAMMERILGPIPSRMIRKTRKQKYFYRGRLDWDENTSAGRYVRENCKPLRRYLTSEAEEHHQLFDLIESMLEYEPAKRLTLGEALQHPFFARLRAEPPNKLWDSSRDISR
Experiment [7] addresses SRSF protein kinase 2 (Homo sapiens, UniProt P78362).
In experiment [8] the test system is K562. In words: Cytotoxicity against human K562 cells. The experiment is classed as functional, cell-based.
The subject of experiment [9] is HL-60. Put plainly: Cytotoxicity against HL-60 cells. In kind it is functional, cell-based. Particulars: Homo sapiens.
Experiment [10] deals with T2, Serine/arginine-rich splicing factor 6 (Homo sapiens, UniProt Q13247).
T2 sequence (Q13247 whole entry): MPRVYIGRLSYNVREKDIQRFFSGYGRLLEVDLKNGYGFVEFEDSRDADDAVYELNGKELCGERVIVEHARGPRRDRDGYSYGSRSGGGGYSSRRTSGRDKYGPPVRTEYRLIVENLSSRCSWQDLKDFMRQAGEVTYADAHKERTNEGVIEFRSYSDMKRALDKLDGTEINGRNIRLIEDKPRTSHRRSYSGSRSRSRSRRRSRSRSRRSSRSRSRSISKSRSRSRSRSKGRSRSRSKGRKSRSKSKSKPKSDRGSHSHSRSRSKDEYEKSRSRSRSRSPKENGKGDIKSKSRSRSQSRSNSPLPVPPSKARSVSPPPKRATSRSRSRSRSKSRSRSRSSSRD
Put plainly: Inhibition of SRSF6 (unknown origin).

Chain of SRSF protein kinase 2 (P78362 whole entry): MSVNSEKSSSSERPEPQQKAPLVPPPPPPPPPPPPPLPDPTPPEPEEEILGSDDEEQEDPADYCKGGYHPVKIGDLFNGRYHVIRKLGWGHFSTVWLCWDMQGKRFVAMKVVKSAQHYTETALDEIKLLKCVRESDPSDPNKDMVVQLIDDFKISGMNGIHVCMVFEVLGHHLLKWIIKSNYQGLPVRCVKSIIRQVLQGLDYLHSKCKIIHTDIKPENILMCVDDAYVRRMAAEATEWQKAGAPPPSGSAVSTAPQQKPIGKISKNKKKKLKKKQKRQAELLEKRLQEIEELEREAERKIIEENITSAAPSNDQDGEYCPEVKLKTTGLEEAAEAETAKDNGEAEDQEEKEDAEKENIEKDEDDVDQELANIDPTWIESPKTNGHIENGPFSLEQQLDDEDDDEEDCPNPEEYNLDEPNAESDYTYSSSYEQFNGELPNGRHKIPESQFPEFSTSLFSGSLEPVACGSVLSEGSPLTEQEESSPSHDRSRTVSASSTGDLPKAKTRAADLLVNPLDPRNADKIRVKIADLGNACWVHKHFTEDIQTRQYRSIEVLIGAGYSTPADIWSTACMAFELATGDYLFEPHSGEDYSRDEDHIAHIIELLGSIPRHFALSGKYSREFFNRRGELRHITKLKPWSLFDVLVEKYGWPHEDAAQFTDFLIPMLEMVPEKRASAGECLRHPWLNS

The IC50 is the concentration that gives 50% inhibition. In the case of `C.O=c1oc2cc(O)ccc2c2c1[nH]c1ccccc12`, the IC50 came to 74 nM in experiment [1], 2700 nM in [2] and 380 nM in experiment [3].

Usually inhibition stands for the percentage by which the read-out fell short of the control. Compound `c1cc(-c2ccc3[nH]ncc3c2)ccn1` displayed an inhibition in experiment [4] of 84%.

As for `O=C(Nc1cc(C(F)(F)F)ccc1N1CCCCC1)c1ccncc1`, in [5], the IC50 was found to be 890 nM.

`O=C(Oc1cc(O)c2c(c1)OC(c1cc(O)c(O)c(O)c1)CC2)c1cc(O)c(O)c(O)c1` (stereo not drawn) registered an IC50 in experiment [6] of 2700 nM.

In the case of `O=c1oc2cc(O)ccc2c2c1[nH]c1ccc(O)cc12`, the IC50 was determined as 67 nM in experiment [1], 720 nM in [2] and 310 nM in [3].

`COc1cc(/C=C2/C(=N)N3N=C(C(F)(F)F)SC3=NC2=O)ccc1O`: the IC50 in [7] came to 203 nM; in experiment [8], 44700 nM; in experiment [9], 44700 nM.

In experiment [10], `CCc1cc2c(cc1CC)CC(NC[C@H](O)c1ccc(O)c3[nH]c(=O)ccc13)C2` [INDACATEROL] displayed an IC50 of 19000 nM.
